Test: Pre-bronchodilator FEV1 and percent predicted FEV1 by spirometry, change from baseline
Assay type: in vivo, human
Conditions: 400 mg BID, Week 12
Experimental: Spirometry is a standard test to measure patients' lung function.
The primary endpoint was the proportion of patients with LOAC. The key secondary endpoint for the study was change in pre-bronchodilator FEV1 from baseline at EOT.
Reversibility is defined as an increase of the absolute FEV1 after administration of bronchodilator and is measured by spirometry as postbronchodilator increase in FEV1 in percent of the prebronchodilator FEV1. After spirometry for measuring prebronchodilator FEV1, participants were to receive 2-4 puffs of albuterol/salbutamol or levalbuterol/levosalbutamol from a primed MDI. The postbronchodilator spirometry may have been repeated several times within 30 minutes after administration of bronchodilator. Alternatively, and only if it was consistent with usual office practice (to be documented), reversibility may have been performed using inhalation of nebulized albuterol/salbutamol or levalbuterol/levosalbutamol.
Secondary endpoints included pre-bronchodilator FEV1 change from baseline at EOT, ACQ-5 score change from baseline, and AQLQ score change from baseline. Other secondary and exploratory endpoints are described in Table 2.

[1] = >2 exacerbations within 2 years
[2] = baseline FEV1 <2.022 L (median)
[3] = baseline FEV1 reversibility <12%
[4] = baseline FEV1 reversibility ≥12%
[5] = baseline FEV1 ≥2.022 L (median)
[6] = baseline IgE <210.8 IU/mL (median)
[7] = baseline IgE ≥210.8 IU/mL (median)
[8] = baseline blood eosinophils <0.15 10^9/L
[9] = baseline blood eosinophils <0.3 10^9/L
[10] = baseline blood eosinophils ≥0.15 10^9/L
[11] = baseline blood eosinophils ≥0.3 10^9/L
[12] = baseline percent predicted FEV1 <68% (median)
[13] = baseline percent predicted FEV1 ≥68% (median)

CC(C)(C=C(C#N)C(=O)N1CCC[C@@H](n2nc(-c3ccc(Oc4ccccc4)cc3F)c3c(N)ncnc32)C1)N1CCN(C2COC2)CC1 (mixture of isomers) [rilzabrutinib, (R)-2-[3-[4-amino-3-(2-fluoro-4-phenoxy-phenyl)pyrazolo[3,4-d]pyrimidin-1-yl]piperidine-1-carbonyl]-4-methyl-4-[4-(oxetan-3-yl)piperazin-1-yl]pent-2-enenitrile]
Pre-bronchodilator FEV1 change from baseline, LS Mean (1 exacerbation within 2 years): -0.08 L | Pre-bronchodilator FEV1 change from baseline, LS Mean Diff vs. placebo (1 exacerbation within 2 years): -0.05 L | Pre-bronchodilator FEV1 change from baseline, Mean (1 exacerbation within 2 years): 0.05 L | Pre-bronchodilator FEV1 change from baseline, LS Mean (2 exacerbations within 2 years): -0.01 L | Pre-bronchodilator FEV1 change from baseline, LS Mean Diff vs. placebo (2 exacerbations within 2 years): 0.10 L | Pre-bronchodilator FEV1 change from baseline, Mean (2 exacerbations within 2 years): -0.06 L | Pre-bronchodilator FEV1 change from baseline, LS Mean [1]: -0.36 L | Pre-bronchodilator FEV1 change from baseline, LS Mean Diff vs. placebo [1]: -0.16 L | Pre-bronchodilator FEV1 change from baseline, Mean [1]: -0.15 L | Pre-bronchodilator FEV1 change from baseline, Mean (APAC): -0.09 L | Pre-bronchodilator FEV1 change from baseline, Mean (Eastern Europe): -0.21 L | Pre-bronchodilator FEV1 change from baseline, LS Mean (Latin America): -0.07 L | Pre-bronchodilator FEV1 change from baseline, LS Mean Diff vs. placebo (Latin America): -0.01 L | Pre-bronchodilator FEV1 change from baseline, Mean (Latin America): -0.05 L | Pre-bronchodilator FEV1 change from baseline, Mean (Western Countries): 0.24 L | Pre-bronchodilator FEV1 change from baseline, LS Mean (age <45 years): -0.13 L | Pre-bronchodilator FEV1 change from baseline, LS Mean Diff vs. placebo (age <45 years): -0.13 L | Pre-bronchodilator FEV1 change from baseline, Mean (age <45 years): -0.05 L | Pre-bronchodilator FEV1 change from baseline, LS Mean (age ≥45 years): -0.14 L | Pre-bronchodilator FEV1 change from baseline, LS Mean Diff vs. placebo (age ≥45 years): 0.02 L | Pre-bronchodilator FEV1 change from baseline, Mean (age ≥45 years): -0.03 L | Pre-bronchodilator FEV1 change from baseline, LS Mean (asthma onset age <12 years): 0.12 L | Pre-bronchodilator FEV1 change from baseline, LS Mean Diff vs. placebo (asthma onset age <12 years): 0.18 L | Pre-bronchodilator FEV1 change from baseline, Mean (asthma onset age <12 years): 0.00 L | Pre-bronchodilator FEV1 change from baseline, LS Mean (asthma onset age <18 years): -0.00 L | Pre-bronchodilator FEV1 change from baseline, LS Mean Diff vs. placebo (asthma onset age <18 years): 0.08 L | Pre-bronchodilator FEV1 change from baseline, Mean (asthma onset age <18 years): 0.04 L | Pre-bronchodilator FEV1 change from baseline, Mean (asthma onset age ≥12-<18 years): 0.12 L | Pre-bronchodilator FEV1 change from baseline, LS Mean (asthma onset age ≥18-<40 years): -0.14 L | Pre-bronchodilator FEV1 change from baseline, LS Mean Diff vs. placebo (asthma onset age ≥18-<40 years): 0.00 L | Pre-bronchodilator FEV1 change from baseline, Mean (asthma onset age ≥18-<40 years): -0.08 L | Pre-bronchodilator FEV1 change from baseline, LS Mean (asthma onset age ≥18 years): -0.17 L | Pre-bronchodilator FEV1 change from baseline, LS Mean Diff vs. placebo (asthma onset age ≥18 years): -0.03 L | Pre-bronchodilator FEV1 change from baseline, Mean (asthma onset age ≥18 years): -0.11 L | Pre-bronchodilator FEV1 change from baseline, LS Mean (asthma onset age ≥40 years): 0.00 L | Pre-bronchodilator FEV1 change from baseline, LS Mean Diff vs. placebo (asthma onset age ≥40 years): 0.07 L | Pre-bronchodilator FEV1 change from baseline, Mean (asthma onset age ≥40 years): -0.31 L | Pre-bronchodilator FEV1 change from baseline, LS Mean (atopic medical conditions: No): -0.15 L | Pre-bronchodilator FEV1 change from baseline, LS Mean Diff vs. placebo (atopic medical conditions: No): 0.10 L | Pre-bronchodilator FEV1 change from baseline, Mean (atopic medical conditions: No): -0.16 L | Pre-bronchodilator FEV1 change from baseline, LS Mean (atopic medical conditions: Yes): 0.02 L | Pre-bronchodilator FEV1 change from baseline, LS Mean Diff vs. placebo (atopic medical conditions: Yes): -0.03 L | Pre-bronchodilator FEV1 change from baseline, Mean (atopic medical conditions: Yes): 0.03 L | Pre-bronchodilator FEV1 change from baseline, LS Mean (background ICS/LABA dose High): -0.11 L | Pre-bronchodilator FEV1 change from baseline, LS Mean Diff vs. placebo (background ICS/LABA dose High): 0.02 L | Pre-bronchodilator FEV1 change from baseline, Mean (background ICS/LABA dose High): -0.05 L | Pre-bronchodilator FEV1 change from baseline, Mean (background ICS/LABA dose Medium): 0.04 L | Pre-bronchodilator FEV1 change from baseline, LS Mean (baseline ACQ-5 >2): -0.12 L | Pre-bronchodilator FEV1 change from baseline, LS Mean Diff vs. placebo (baseline ACQ-5 >2): -0.04 L | Pre-bronchodilator FEV1 change from baseline, Mean (baseline ACQ-5 >2): -0.09 L | Pre-bronchodilator FEV1 change from baseline, LS Mean (baseline ACQ-5 ≤2): -0.12 L | Pre-bronchodilator FEV1 change from baseline, LS Mean Diff vs. placebo (baseline ACQ-5 ≤2): 0.04 L | Pre-bronchodilator FEV1 change from baseline, Mean (baseline ACQ-5 ≤2): 0.00 L | Pre-bronchodilator FEV1 change from baseline, LS Mean (baseline BMI <25 kg/m^2): -0.09 L | Pre-bronchodilator FEV1 change from baseline, LS Mean Diff vs. placebo (baseline BMI <25 kg/m^2): 0.15 L | Pre-bronchodilator FEV1 change from baseline, Mean (baseline BMI <25 kg/m^2): 0.02 L | Pre-bronchodilator FEV1 change from baseline, LS Mean (baseline BMI ≥25-<30 kg/m^2): -0.06 L | Pre-bronchodilator FEV1 change from baseline, LS Mean Diff vs. placebo (baseline BMI ≥25-<30 kg/m^2): 0.06 L | Pre-bronchodilator FEV1 change from baseline, Mean (baseline BMI ≥25-<30 kg/m^2): -0.00 L | Pre-bronchodilator FEV1 change from baseline, LS Mean (baseline BMI ≥30 kg/m^2): -0.04 L | Pre-bronchodilator FEV1 change from baseline, LS Mean Diff vs. placebo (baseline BMI ≥30 kg/m^2): -0.13 L | Pre-bronchodilator FEV1 change from baseline, Mean (baseline BMI ≥30 kg/m^2): -0.18 L | Pre-bronchodilator FEV1 change from baseline, LS Mean [2]: -0.08 L | Pre-bronchodilator FEV1 change from baseline, LS Mean Diff vs. placebo [2]: 0.04 L | Pre-bronchodilator FEV1 change from baseline, Mean [2]: -0.06 L | Pre-bronchodilator FEV1 change from baseline, LS Mean [3]: -0.23 L | Pre-bronchodilator FEV1 change from baseline, LS Mean Diff vs. placebo [3]: -0.00 L | Pre-bronchodilator FEV1 change from baseline, Mean [3]: -0.24 L | Pre-bronchodilator FEV1 change from baseline, LS Mean [4]: 0.07 L | Pre-bronchodilator FEV1 change from baseline, LS Mean Diff vs. placebo [4]: -0.05 L | Pre-bronchodilator FEV1 change from baseline, Mean [4]: 0.08 L | Pre-bronchodilator FEV1 change from baseline, LS Mean [5]: -0.09 L | Pre-bronchodilator FEV1 change from baseline, LS Mean Diff vs. placebo [5]: -0.03 L | Pre-bronchodilator FEV1 change from baseline, Mean [5]: -0.02 L | Pre-bronchodilator FEV1 change from baseline, LS Mean (baseline FeNO <25 ppb): -0.16 L | Pre-bronchodilator FEV1 change from baseline, LS Mean Diff vs. placebo (baseline FeNO <25 ppb): 0.03 L | Pre-bronchodilator FEV1 change from baseline, Mean (baseline FeNO <25 ppb): -0.12 L | Pre-bronchodilator FEV1 change from baseline, LS Mean (baseline FeNO <35 ppb): -0.19 L | Pre-bronchodilator FEV1 change from baseline, LS Mean Diff vs. placebo (baseline FeNO <35 ppb): -0.04 L | Pre-bronchodilator FEV1 change from baseline, Mean (baseline FeNO <35 ppb): -0.10 L | Pre-bronchodilator FEV1 change from baseline, LS Mean (baseline FeNO ≥25 ppb): -0.00 L | Pre-bronchodilator FEV1 change from baseline, LS Mean Diff vs. placebo (baseline FeNO ≥25 ppb): -0.01 L | Pre-bronchodilator FEV1 change from baseline, Mean (baseline FeNO ≥25 ppb): 0.01 L | Pre-bronchodilator FEV1 change from baseline, LS Mean (baseline FeNO ≥35 ppb): 0.05 L | Pre-bronchodilator FEV1 change from baseline, LS Mean Diff vs. placebo (baseline FeNO ≥35 ppb): 0.06 L | Pre-bronchodilator FEV1 change from baseline, Mean (baseline FeNO ≥35 ppb): 0.08 L | Pre-bronchodilator FEV1 change from baseline, LS Mean (baseline IgE <100 IU/mL): -0.11 L | Pre-bronchodilator FEV1 change from baseline, LS Mean Diff vs. placebo (baseline IgE <100 IU/mL): -0.03 L | Pre-bronchodilator FEV1 change from baseline, Mean (baseline IgE <100 IU/mL): -0.09 L | Pre-bronchodilator FEV1 change from baseline, LS Mean [6]: -0.11 L | Pre-bronchodilator FEV1 change from baseline, LS Mean Diff vs. placebo [6]: 0.01 L | Pre-bronchodilator FEV1 change from baseline, Mean [6]: -0.02 L | Pre-bronchodilator FEV1 change from baseline, LS Mean (baseline IgE ≥100 IU/mL): -0.04 L | Pre-bronchodilator FEV1 change from baseline, LS Mean Diff vs. placebo (baseline IgE ≥100 IU/mL): 0.02 L | Pre-bronchodilator FEV1 change from baseline, Mean (baseline IgE ≥100 IU/mL): -0.02 L | Pre-bronchodilator FEV1 change from baseline, LS Mean [7]: -0.02 L | Pre-bronchodilator FEV1 change from baseline, LS Mean Diff vs. placebo [7]: 0.01 L | Pre-bronchodilator FEV1 change from baseline, Mean [7]: -0.08 L | Pre-bronchodilator FEV1 change from baseline, LS Mean [8]: -0.08 L | Pre-bronchodilator FEV1 change from baseline, LS Mean Diff vs. placebo [8]: -0.04 L | Pre-bronchodilator FEV1 change from baseline, Mean [8]: -0.10 L | Pre-bronchodilator FEV1 change from baseline, LS Mean [9]: -0.15 L | Pre-bronchodilator FEV1 change from baseline, LS Mean Diff vs. placebo [9]: -0.07 L | Pre-bronchodilator FEV1 change from baseline, Mean [9]: -0.10 L | Pre-bronchodilator FEV1 change from baseline, LS Mean [10]: -0.03 L | Pre-bronchodilator FEV1 change from baseline, LS Mean Diff vs. placebo [10]: 0.07 L | Pre-bronchodilator FEV1 change from baseline, Mean [10]: -0.01 L | Pre-bronchodilator FEV1 change from baseline, LS Mean Diff vs. placebo [11]: 0.07 L | Pre-bronchodilator FEV1 change from baseline, Mean [11]: 0.04 L | Pre-bronchodilator FEV1 change from baseline, LS Mean [12]: -0.21 L | Pre-bronchodilator FEV1 change from baseline, LS Mean Diff vs. placebo [12]: 0.03 L | Pre-bronchodilator FEV1 change from baseline, Mean [12]: -0.05 L | Pre-bronchodilator FEV1 change from baseline, LS Mean [13]: -0.07 L | Pre-bronchodilator FEV1 change from baseline, LS Mean Diff vs. placebo [13]: -0.01 L | Pre-bronchodilator FEV1 change from baseline, Mean [13]: -0.02 L | Pre-bronchodilator FEV1 change from baseline, Mean (baseline weight <60 kg): -0.02 L | Pre-bronchodilator FEV1 change from baseline, LS Mean (baseline weight ≥60-<90 kg): -0.09 L | Pre-bronchodilator FEV1 change from baseline, LS Mean Diff vs. placebo (baseline weight ≥60-<90 kg): 0.03 L | Pre-bronchodilator FEV1 change from baseline, Mean (baseline weight ≥60-<90 kg): -0.01 L
